Several values for one entry are separate records, joined by “and”; a condition that tells them apart may be missing. Identical values can stand only once. Toxic doses and inconclusive results are not listed. Rule for the calls: active = survival T/C of 150% or more; inactive = T/C below 125% in these data.
Tested on: BDF1 mice, P388 leukemia ip, median survival T/C
Assay: NCI In Vivo Anticancer Drug Screen. Data for tumor model P388 Leukemia (intraperitoneal) in B6D2F1 (BDF1) mice
Details: endpoint: median survival time, higher = longer survival
Procedure, shortened: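 Reported as T/C, where T is the survival measurement in dosed animals and C the same measurement in vehicle controls.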

[1] = dose: 50.0 mg/kg/injection, schedule: Q04DX003 (ip), vehicle: Klucel (hydroxypropylcellulose) (HPC)
[2] = dose: 100.0 mg/kg/injection, schedule: Q04DX003 (ip), vehicle: Klucel (hydroxypropylcellulose) (HPC)
[3] = dose: 200.0 mg/kg/injection, schedule: Q04DX003 (ip), vehicle: Klucel (hydroxypropylcellulose) (HPC)
[4] = dose: 100.0 mg/kg/injection, schedule: Q01DX009 (ip), vehicle: saline
[5] = dose: 100.0 mg/kg/injection, schedule: Q04DX003 (ip), vehicle: saline
[6] = dose: 200.0 mg/kg/injection, schedule: Q04DX003 (ip), vehicle: saline
[7] = dose: 400.0 mg/kg/injection, schedule: Q01DX009 (ip), vehicle: saline
[8] = dose: 400.0 mg/kg/injection, schedule: Q04DX003 (ip), vehicle: saline

Measured: T/C

Cc1cc2c(c(O)c1CN1CCOCC1)C1=C(CCCC1)C(C)(C)O2
inactive: dose: 1.0 mg/kg/injection, schedule: Q01DX001 (ip), vehicle: Klucel (hydroxypropylcellulose) (HPC) 99 % of control | dose: 2.0 mg/kg/injection, schedule: Q01DX001 (ip), vehicle: Klucel (hydroxypropylcellulose) (HPC) 112 % of control | dose: 4.0 mg/kg/injection, schedule: Q01DX001 (ip), vehicle: Klucel (hydroxypropylcellulose) (HPC) 104 % of control | dose: 8.0 mg/kg/injection, schedule: Q01DX001 (ip), vehicle: Klucel (hydroxypropylcellulose) (HPC) 104 % of control | dose: 16.0 mg/kg/injection, schedule: Q01DX001 (ip), vehicle: Klucel (hydroxypropylcellulose) (HPC) 109 % of control | dose: 32.0 mg/kg/injection, schedule: Q01DX001 (ip), vehicle: Klucel (hydroxypropylcellulose) (HPC) 98 % of control | dose: 64.0 mg/kg/injection, schedule: Q01DX001 (ip), vehicle: Klucel (hydroxypropylcellulose) (HPC) 96 % of control | dose: 128.0 mg/kg/injection, schedule: Q01DX001 (ip), vehicle: Klucel (hydroxypropylcellulose) (HPC) 106 % of control | dose: 256.0 mg/kg/injection, schedule: Q01DX001 (ip), vehicle: Klucel (hydroxypropylcellulose) (HPC) 98 % of control

COC(=O)c1ccc(OP(=O)(N(C)C)N(C)C)cc1
inactive: dose: 12.5 mg/kg/injection, schedule: Q01DX009 (ip), vehicle: saline with Tween-80 117 % of control | dose: 25.0 mg/kg/injection, schedule: Q01DX009 (ip), vehicle: saline with Tween-80 115 % of control

CC(=O)NC1CC(=O)N(c2ccccc2)C1 (configuration not stated)
inactive: dose: 87.5 mg/kg/injection, schedule: Q01DX009 (ip), vehicle: saline with Tween-80 102 % of control | dose: 175.0 mg/kg/injection, schedule: Q01DX009 (ip), vehicle: saline with Tween-80 111 % of control | dose: 350.0 mg/kg/injection, schedule: Q01DX009 (ip), vehicle: saline with Tween-80 100 % of control

[N-]=[N+]=C1C(=O)NN=C1c1ccccc1
inactive: dose: 25.0 mg/kg/injection, schedule: Q04DX003 (ip), vehicle: Klucel (hydroxypropylcellulose) (HPC) 104 % of control | [1] 114 % of control | [2] 95 % of control

CCOC(=O)C(C1=NC(C)(C)CC(C)O1)C1CCCCC1 (configuration not stated)
inactive: dose: 50.0 mg/kg/injection, schedule: Q01DX001 (ip), vehicle: saline sonified 120 % of control | dose: 100.0 mg/kg/injection, schedule: Q01DX001 (ip), vehicle: saline sonified 110 % of control | dose: 200.0 mg/kg/injection, schedule: Q01DX001 (ip), vehicle: saline sonified 105 % of control

Sc1ccc2ccccc2c1
inactive: [1] 104 % of control | dose: 100.0 mg/kg/injection, schedule: Q01DX001 (ip), vehicle: Klucel (hydroxypropylcellulose) (HPC) 104 % of control | [2] 109 % of control | dose: 200.0 mg/kg/injection, schedule: Q01DX001 (ip), vehicle: Klucel (hydroxypropylcellulose) (HPC) 95 % of control | [3] 109 % of control | dose: 400.0 mg/kg/injection, schedule: Q01DX001 (ip), vehicle: Klucel (hydroxypropylcellulose) (HPC) 100 % of control

CC(=O)Nc1cc(NC(C)=O)cc(N(CCO)CCO)c1
inactive: dose: 3.12 mg/kg/injection, schedule: Q01DX009 (ip), vehicle: water 99 % of control | dose: 6.25 mg/kg/injection, schedule: Q01DX009 (ip), vehicle: water 90 % of control and 111 % of control | dose: 12.5 mg/kg/injection, schedule: Q01DX009 (ip), vehicle: water 93 % of control and 101 % of control | dose: 25.0 mg/kg/injection, schedule: Q01DX009 (ip), vehicle: water 97 % of control and 101 % of control | dose: 25.0 mg/kg/injection, schedule: Q04DX003 (ip), vehicle: water 89 % of control | dose: 50.0 mg/kg/injection, schedule: Q01DX009 (ip), vehicle: water 117 % of control | dose: 50.0 mg/kg/injection, schedule: Q04DX003 (ip), vehicle: water 100 % of control | dose: 100.0 mg/kg/injection, schedule: Q04DX003 (ip), vehicle: water 104 % of control | dose: 200.0 mg/kg/injection, schedule: Q04DX003 (ip), vehicle: water 112 % of control | dose: 400.0 mg/kg/injection, schedule: Q04DX003 (ip), vehicle: water 108 % of control

CCN(CC)c1cc(Cl)c(C=O)cc1[N+](=O)[O-]
inactive: dose: 100.0 mg/kg/injection, schedule: Q01DX009 (ip), vehicle: Klucel (hydroxypropylcellulose) (HPC) 95 % of control | dose: 200.0 mg/kg/injection, schedule: Q01DX009 (ip), vehicle: Klucel (hydroxypropylcellulose) (HPC) 104 % of control | dose: 400.0 mg/kg/injection, schedule: Q01DX009 (ip), vehicle: Klucel (hydroxypropylcellulose) (HPC) 95 % of control

COc1ccc(C(CCl)(CCl)c2ccc(OC)cc2)cc1
inactive: dose: 100.0 mg/kg/injection, schedule: Q01DX009 (ip), vehicle: gum acacia 116 % of control | dose: 100.0 mg/kg/injection, schedule: Q04DX003 (ip), vehicle: gum acacia 87 % of control | dose: 200.0 mg/kg/injection, schedule: Q01DX009 (ip), vehicle: gum acacia 112 % of control | dose: 200.0 mg/kg/injection, schedule: Q04DX003 (ip), vehicle: gum acacia 104 % of control | dose: 400.0 mg/kg/injection, schedule: Q01DX009 (ip), vehicle: gum acacia 104 % of control | dose: 400.0 mg/kg/injection, schedule: Q04DX003 (ip), vehicle: gum acacia 95 % of control

O=S(=O)(O)CCN(CCO)CCO
inactive: [4] 87 % of control | [5] 109 % of control | [6] 104 % of control | [7] 87 % of control | [8] 95 % of control

NCCCCNC(=O)c1csc(-c2csc(CCNC(=O)c3ccccc3)n2)n1
inactive: dose: 8.0 mg/kg/injection, schedule: Q01DX009 (ip), vehicle: saline 100 % of control | dose: 16.0 mg/kg/injection, schedule: Q01DX009 (ip), vehicle: saline 100 % of control | dose: 32.0 mg/kg/injection, schedule: Q01DX009 (ip), vehicle: saline 100 % of control | dose: 64.0 mg/kg/injection, schedule: Q01DX009 (ip), vehicle: saline 110 % of control

CCN(CCNc1ccc(CO)c2sc3ccccc3c(=O)c12)CC(C)(C)O
inactive: [1] 102 % of control | [2] 100 % of control | [3] 106 % of control

CC(C)(C)OC(=O)NO
inactive: [4] 105 % of control | [5] 91 % of control | dose: 200.0 mg/kg/injection, schedule: Q01DX009 (ip), vehicle: saline 95 % of control | [6] 95 % of control | [7] 90 % of control | [8] 95 % of control

O=C1NCCS1
inactive: dose: 100.0 mg/kg/injection, schedule: Q04DX003 (ip), vehicle: saline sonified 90 % of control | dose: 200.0 mg/kg/injection, schedule: Q04DX003 (ip), vehicle: saline sonified 90 % of control | dose: 400.0 mg/kg/injection, schedule: Q04DX003 (ip), vehicle: saline sonified 95 % of control

CSc1ccccc1C(C)(C)O
inactive: dose: 50.0 mg/kg/injection, schedule: Q01DX009 (ip), vehicle: other 100 % of control | dose: 100.0 mg/kg/injection, schedule: Q01DX009 (ip), vehicle: other 104 % of control | dose: 200.0 mg/kg/injection, schedule: Q01DX009 (ip), vehicle: other 113 % of control

CCN(CC)CCCC(C)Nc1ccnc2cc(Cl)cnc12 (configuration not stated) (tested in a mixture with another compound)
inactive: dose: 50.0 mg/kg/injection, schedule: Q01DX009 (ip), vehicle: saline with Tween-80 107 % of control | dose: 100.0 mg/kg/injection, schedule: Q01DX009 (ip), vehicle: saline with Tween-80 114 % of control | dose: 200.0 mg/kg/injection, schedule: Q01DX009 (ip), vehicle: saline with Tween-80 98 % of control

Source: PubChem BioAssay AID328 (DTP/NCI, 2004)
